The values below come from patent publication US7524964B2, “Tetrahydrothiopyrano pyrazole cannabinoid modulators” (Janssen Pharmaceutica NV, priority 2005, dated 2009).

A word on the IC50: it is the concentration that inhibits the measured activity by half. A lower IC50 goes with greater potency in that assay. For orientation: inhibition means the drop in the measured response relative to a control, in per cent.

The target of one experiment is human CB1 receptor (Homo sapiens, UniProt P21554). Kind of experiment: Binding assay, cannabinoid CB1 receptor ([3H]-CP-55,940 displacement). The settings on record: for inhibition at 0.2 µM: test concentration 0.2 μM (superscript a), read-out: CB1 binding percent inhibition. The arrangement: expressed in transfected cells; host or cells: SK-N-MC cells, pcDNA3 CB-1 (human), semi-purified membranes. Summed up: (§1)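 Membranes from SK-N-MC cells stably expressing human CB-1 or CB-2 were incubated 90 min at 30° C with 0.2 nM [3H]-CP-55,940 in pH 7.5 Tris buffer with fatty-acid-free BSA; 10 uM WIN 55,212 defined non-specific binding. Filter-bound counts gave IC50 by linear regression, or percent inhibition at 0.2, 1 or 10 μM.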

The next experiment deals with T1, human CB-2 receptor (Homo sapiens, UniProt P34972).
T1 construct: expressed in transfected cells; host or cells: SK-N-MC cells, pcDNA3 CB-2 (human), semi-purified membranes
The experiment in a line: Binding assay, cannabinoid CB2 receptor ([3H]-CP-55,940 displacement). To be noted: test concentration 0.2 μM (superscript a); read-out: CB2 binding percent inhibition. The method in brief:
as §1

T1 sequence (P34972 whole entry): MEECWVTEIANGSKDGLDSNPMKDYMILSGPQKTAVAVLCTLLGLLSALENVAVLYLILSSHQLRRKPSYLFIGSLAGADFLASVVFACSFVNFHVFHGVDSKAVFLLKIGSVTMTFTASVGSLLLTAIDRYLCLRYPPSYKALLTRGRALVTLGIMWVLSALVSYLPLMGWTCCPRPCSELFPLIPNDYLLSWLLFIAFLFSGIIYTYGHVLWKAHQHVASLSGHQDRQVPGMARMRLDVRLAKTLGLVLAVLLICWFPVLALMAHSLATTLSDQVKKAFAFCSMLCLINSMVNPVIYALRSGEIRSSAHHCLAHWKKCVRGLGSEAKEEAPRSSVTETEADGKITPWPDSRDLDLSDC
Sequence of human CB1 receptor (P21554 whole entry): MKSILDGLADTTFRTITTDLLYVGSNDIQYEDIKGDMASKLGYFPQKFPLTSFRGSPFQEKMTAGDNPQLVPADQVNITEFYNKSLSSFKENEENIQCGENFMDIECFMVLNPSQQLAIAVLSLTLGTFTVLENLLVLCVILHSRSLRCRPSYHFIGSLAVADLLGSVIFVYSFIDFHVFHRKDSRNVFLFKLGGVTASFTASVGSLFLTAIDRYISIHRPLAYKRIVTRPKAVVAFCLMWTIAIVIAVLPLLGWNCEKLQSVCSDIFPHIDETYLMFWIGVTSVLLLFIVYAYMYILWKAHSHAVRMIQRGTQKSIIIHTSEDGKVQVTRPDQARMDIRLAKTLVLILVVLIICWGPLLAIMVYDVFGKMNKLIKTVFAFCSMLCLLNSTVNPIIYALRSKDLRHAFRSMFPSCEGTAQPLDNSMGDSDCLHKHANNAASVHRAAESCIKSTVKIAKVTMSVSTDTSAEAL

In the case of `O=C(N[C@H]1c2ccccc2C[C@H]1O)c1nn(-c2ccc(Cl)cc2Cl)c2c1CS(=O)(=O)C/C2=C\c1ccc(F)cc1` [Cpd 70, (7Z)-1-(2,4-dichloro-phenyl)-7-(4-fluoro-benzylidene)-5,5-dioxo-4,5,6,7-tetrahydro-1H-5λ^6-thiopyrano[4,3-c]pyrazole-3-carboxylic acid [(1S,2R)-2-hydroxy-indan-1-yl]-amide], the IC50 at human CB1 receptor was 12 nM. Further, the inhibition at 0.2 µM at human CB-2 receptor turned out to be 19%.
For the compound `NC(=O)c1nn(-c2ccc(Cl)cc2Cl)c2c1CS(=O)(=O)C/C2=C\c1ccc(F)cc1` [Cpd 71, (7Z)-1-(2,4-dichloro-phenyl)-7-(4-fluoro-benzylidene)-5,5-dioxo-4,5,6,7-tetrahydro-1H-5λ^6-thiopyrano[4,3-c]pyrazole-3-carboxylic acid amide], the inhibition at 0.2 µM on human CB1 receptor came to 18%; at human CB-2 receptor it was 13%.
On to `O=C(NCc1ccccn1)c1nn(-c2ccc(Cl)cc2Cl)c2c1CSC/C2=C\c1ccc(F)cc1` [Cpd 72, (7Z)-1-(2,4-dichloro-phenyl)-7-(4-fluoro-benzylidene)-1,4,6,7-tetrahydro-thiopyrano[4,3-c]pyrazole-3-carboxylic acid (pyridin-2-ylmethyl)-amide], for which the inhibition at 0.2 µM on human CB1 receptor amounted to 48%; on human CB-2 receptor, 10%.
Taken in the same sequence, the figures for `O=C(NCc1ccccn1)c1nn(-c2ccc(Cl)cc2Cl)c2c1CS(=O)(=O)C/C2=C\c1ccc(F)cc1` [Cpd 73, (7Z)-1-(2,4-dichloro-phenyl)-7-(4-fluoro-benzylidene)-5,5-dioxo-4,5,6,7-tetrahydro-1H-5λ^6-thiopyrano[4,3-c]pyrazole-3-carboxylic acid (pyridin-2-ylmethyl)-amide] were 56% and 13%.
Taken in the same sequence, the figures for `C[C@H](NC(=O)c1nn(-c2ccc(Cl)cc2Cl)c2c1C[S+]([O-])C/C2=C\c1ccc(F)cc1)c1ccccc1` (stereo partly drawn) [Cpd 74, (7Z)-1-(2,4-dichloro-phenyl)-7-(4-fluoro-benzylidene)-5-oxo-4,5,6,7-tetrahydro-1H-5λ^4-thiopyrano[4,3-c]pyrazole-3-carboxylic acid [(1S)-1-phenyl-ethyl]-amide] were 45% and 8%.
Consider `C[C@@H](NC(=O)c1nn(-c2ccc(Cl)cc2Cl)c2c1C[S+]([O-])C/C2=C\c1ccc(F)cc1)c1ccccc1` (stereo partly drawn) [Cpd 75, (7Z)-1-(2,4-dichloro-phenyl)-7-(4-fluoro-benzylidene)-5-oxo-4,5,6,7-tetrahydro-1H-5λ^4-thiopyrano[4,3-c]pyrazole-3-carboxylic acid [(1R)-1-phenyl-ethyl]-amide], for which the IC50 at human CB1 receptor was found to be 14 nM. Further, the inhibition at 0.2 µM on human CB-2 receptor turned out to be 2%.
As for `O=C(N[C@@H]1CCC[C@H]1O)c1nn(-c2ccc(Cl)cc2Cl)c2c1C[S+]([O-])C/C2=C\c1ccc(F)cc1` (stereo partly drawn) [Cpd 76, (7Z)-1-(2,4-dichloro-phenyl)-7-(4-fluoro-benzylidene)-5-oxo-4,5,6,7-tetrahydro-1H-5λ^4-thiopyrano[4,3-c]pyrazole-3-carboxylic acid [(1R,2R)-2-hydroxy-cyclopentyl]-amide], the inhibition at 0.2 µM on human CB1 receptor amounted to 20%; on human CB-2 receptor, 0%.
Taken in the same sequence, the figures for `O=C(NNc1ccc(Cl)cc1Cl)c1nn(-c2ccc(Cl)cc2Cl)c2c1C[S+]([O-])C/C2=C\c1ccc(F)cc1` (stereo not drawn) [Cpd 77, (7Z)-1-(2,4-dichloro-phenyl)-7-(4-fluoro-benzylidene)-5-oxo-4,5,6,7-tetrahydro-1H-5λ^4-thiopyrano[4,3-c]pyrazole-3-carboxylic acid N′-(2,4-dichloro-phenyl)-hydrazide] were 55% and 9%.
The corresponding values for `C[C@@H](NC(=O)c1c2c(nn1-c1ccc(Cl)cc1Cl)/C(=C/c1ccc(F)cc1)CSC2)c1ccccc1` [Cpd 78, (7Z)-2-(2,4-dichloro-phenyl)-7-(4-fluoro-benzylidene)-2,4,6,7-tetrahydro-thiopyrano[4,3-c]pyrazole-3-carboxylic acid [(1R)-1-phenyl-ethyl]-amide] are 62% and 11%.
As to `O=C(NN1CCCCC1)c1nn(-c2ccc(Cl)cc2Cl)c2c1C[S+]([O-])C/C2=C\c1ccc(F)cc1` (stereo not drawn) [Cpd 79, (7Z)-1-(2,4-dichloro-phenyl)-7-(4-fluoro-benzylidene)-5-oxo-4,5,6,7-tetrahydro-1H-5λ^4-thiopyrano[4,3-c]pyrazole-3-carboxylic acid piperidin-1-ylamide], on human CB1 receptor, the IC50 worked out at 160 nM. The inhibition at 0.2 µM at human CB-2 receptor is 10%.
Take `O=C(NCc1ccccn1)c1nn(-c2ccc(Cl)cc2Cl)c2c1C[S+]([O-])C/C2=C\c1ccc(F)cc1` (stereo not drawn) [Cpd 80, (7Z)-1-(2,4-dichloro-phenyl)-7-(4-fluoro-benzylidene)-5-oxo-4,5,6,7-tetrahydro-1H-5λ^4-thiopyrano[4,3-c]pyrazole-3-carboxylic acid (pyridin-2-ylmethyl)-amide]: the inhibition at 0.2 µM was 21% on human CB1 receptor and 2% on human CB-2 receptor.
`O=C(NN1CCCCC1)c1nn(-c2ccc(Cl)cc2Cl)c2c1CS(=O)(=O)C/C2=C\c1ccc(F)cc1` [Cpd 81, (7Z)-1-(2,4-dichloro-phenyl)-7-(4-fluoro-benzylidene)-5,5-dioxo-4,5,6,7-tetrahydro-1H-5λ^6-thiopyrano[4,3-c]pyrazole-3-carboxylic acid piperidin-1-ylamide] returned an IC50 on human CB1 receptor of 32 nM. In addition, the inhibition at 0.2 µM on human CB-2 receptor is 24%.
Compound `C[C@@H](NC(=O)c1c2c(nn1-c1ccc(Cl)cc1Cl)/C(=C/c1ccc(F)cc1)CS(=O)(=O)C2)c1ccccc1` [Cpd 82, (7Z)-2-(2,4-dichloro-phenyl)-7-(4-fluoro-benzylidene)-5,5-dioxo-4,5,6,7-tetrahydro-2H-5λ^6-thiopyrano[4,3-c]pyrazole-3-carboxylic acid [(1R)-1-phenyl-ethyl]-amide] showed an IC50 on human CB1 receptor of 48 nM. Moreover, on human CB-2 receptor, the inhibition at 0.2 µM worked out at 19%.
On to `O=C(NN1CCCCC1)c1c2c(nn1-c1ccc(Cl)cc1Cl)/C(=C/c1ccc(F)cc1)CS(=O)(=O)C2` [Cpd 83, (7Z)-2-(2,4-dichloro-phenyl)-7-(4-fluoro-benzylidene)-5,5-dioxo-4,5,6,7-tetrahydro-2H-5λ^6-thiopyrano[4,3-c]pyrazole-3-carboxylic acid piperidin-1-ylamide], for which, at human CB1 receptor, the IC50 was 27 nM. At human CB-2 receptor, the inhibition at 0.2 µM came out at 17%.
`C[C@@H](NC(=O)c1c2c(nn1-c1ccc(Cl)cc1Cl)/C(=C/c1ccc(F)cc1)CS(=O)(=O)C2)C1CCCCC1` [Cpd 84, (7Z)-2-(2,4-dichloro-phenyl)-7-(4-fluoro-benzylidene)-5,5-dioxo-4,5,6,7-tetrahydro-2H-5λ^6-thiopyrano[4,3-c]pyrazole-3-carboxylic acid [(1R)-1-cyclohexyl-ethyl]-amide]: the IC50 on human CB1 receptor came out at 2 nM. In addition, on human CB-2 receptor, the inhibition at 0.2 µM is 17%.
Taken in the same sequence, the figures for `C[C@H](NC(=O)c1c2c(nn1-c1ccc(Cl)cc1Cl)/C(=C/c1ccc(F)cc1)CS(=O)(=O)C2)C1CCCCC1` [Cpd 85, (7Z)-2-(2,4-dichloro-phenyl)-7-(4-fluoro-benzylidene)-5,5-dioxo-4,5,6,7-tetrahydro-2H-5λ^6-thiopyrano[4,3-c]pyrazole-3-carboxylic acid [(1S)-1-cyclohexyl-ethyl]-amide] were 35 nM and 20%.
The corresponding values for `C[C@H](NC(=O)c1c2c(nn1-c1ccc(Cl)cc1Cl)/C(=C/c1ccc(F)cc1)CS(=O)(=O)C2)c1ccccc1` [Cpd 86, (7Z)-2-(2,4-dichloro-phenyl)-7-(4-fluoro-benzylidene)-5,5-dioxo-4,5,6,7-tetrahydro-2H-5λ^6-thiopyrano[4,3-c]pyrazole-3-carboxylic acid [(1S)-1-phenyl-ethyl]-amide] are 21 nM and 14%.
Taken in the same sequence, the figures for `O=C(NN1CC2CCCC2C1)c1c2c(nn1-c1ccc(Cl)cc1Cl)/C(=C/c1ccc(F)cc1)CS(=O)(=O)C2` (stereo not drawn) [Cpd 87, (7Z)-2-(2,4-dichloro-phenyl)-7-(4-fluoro-benzylidene)-5,5-dioxo-4,5,6,7-tetrahydro-2H-5λ^6-thiopyrano[4,3-c]pyrazole-3-carboxylic acid (hexahydro-cyclopenta[c]pyrrol-2-yl)-amide] were 18 nM and 4%.
Regarding `O=C(NN1CCCCC1)c1c2c(nn1-c1ccc(Cl)cc1Cl)/C(=C/c1ccc(F)cc1)CSC2` [Cpd 88, (7Z)-2-(2,4-dichloro-phenyl)-7-(4-fluoro-benzylidene)-2,4,6,7-tetrahydro-thiopyrano[4,3-c]pyrazole-3-carboxylic acid piperidin-1-ylamide], the values for the inhibition at 0.2 µM on human CB1 receptor and on human CB-2 receptor were 46% and 9%, respectively.
As for `C[C@@H](NC(=O)c1c2c(nn1-c1ccc(Cl)cc1Cl)/C(=C/c1ccc(F)cc1)CSC2)C1CCCCC1` [Cpd 89, (7Z)-2-(2,4-dichloro-phenyl)-7-(4-fluoro-benzylidene)-2,4,6,7-tetrahydro-thiopyrano[4,3-c]pyrazole-3-carboxylic acid [(1R)-1-cyclohexyl-ethyl]-amide], the IC50 at human CB1 receptor was 74 nM. At human CB-2 receptor, the inhibition at 0.2 µM stood at 10%.
For the compound `C[C@H](NC(=O)c1c2c(nn1-c1ccc(Cl)cc1Cl)/C(=C/c1ccc(F)cc1)CSC2)C1CCCCC1` [Cpd 90, (7Z)-2-(2,4-dichloro-phenyl)-7-(4-fluoro-benzylidene)-2,4,6,7-tetrahydro-thiopyrano[4,3-c]pyrazole-3-carboxylic acid [(1S)-1-cyclohexyl-ethyl]amide], the inhibition at 0.2 µM is 31% on human CB1 receptor and 18% at human CB-2 receptor.
